# Assay results: ChEMBL document CHEMBL5055671, “Targeting a Novel KRAS Binding Site: Application of One-Component Stapling of Small (5-6-mer) Peptides” (J Med Chem, 2021)
# What was measured:
# [1] = biological target: GTPase KRas (Homo sapiens, UniProt P01116, G12V); assay: Inhibition of alexa fluor 647-labeled kinase tracer 314 binding to biotinylated-KRAS G12V mutant (unknown origin) measured after 60 mins by HTRF competition binding assay; conditions: read-out: IC50
# [2] = tested on: GTPase KRas (Homo sapiens), P01116 [G12V]; assay: Inhibition of alexa fluor 647-labeled kinase tracer 314 binding to biotinylated-KRAS G12V mutant (unknown origin) at 100 uM measured after 60 mins by HTRF competition binding assay
# [3] = Inhibition of GDP-tagged biotinylated KRas G12C mutant (unknown origin)/GST-Raf (unknown origin) assessed as SOS-mediated nucleotide exchange measured after 1 hr by HRTF assay; design: species or system Homo sapiens
SMILES,IC50 [1] [µM],inhibition [2] [%],IC50 [3] [µM]
C=C1/C=C/CCCC(=O)N[C@@H](C)C(=O)N2CCC[C@H]2C(=O)N[C@@H]([C@@H](C)CC)C(=O)N[C@H](C(=O)N[C@@H](CC(C)C)C(N)=O)CSC1,> 100,28,
CC[C@H](C)[C@@H]1NC(=O)[C@@H]2CCCN2C(=O)CNC(=O)CCCc2cn(nn2)CC[C@@H](C(=O)N[C@@H](CC(C)C)C(N)=O)NC1=O,> 100,6,
CC(C)C[C@H](NC(=O)[C@@H]1COCc2cnnn2CCCCC(=O)NCC(=O)N2CCCC[C@H]2C(=O)N[C@@H](Cc2cccc3ccccc23)C(=O)N1)C(N)=O,7.7,,2.4
CC[C@H](C)[C@@H]1NC(=O)[C@@H]2CCCN2C(=O)CNC(=O)CCCC#CC#CCOC[C@@H](C(=O)N[C@@H](CC(C)C)C(N)=O)NC1=O,> 100,0,
CC[C@H](C)[C@@H]1NC(=O)[C@@H]2CCCN2C(=O)[C@H](C)NC(=O)CCCCn2nncc2COC[C@@H](C(=O)N[C@@H](CC(C)C)C(N)=O)NC1=O,> 100,30,
CC(C)C[C@H](NC(=O)[C@H]1CSCc2cnnn2CCCCC(=O)NCC(=O)N2CCC[C@H]2C(=O)N[C@@H](Cc2cccc3ccccc23)C(=O)N1)C(N)=O,11,,2.5
CC[C@H](C)[C@@H]1NC(=O)[C@@H]2CCCN2C(=O)CNC(=O)CCCc2cnnn2CC[C@@H](C(=O)N[C@@H](CC(C)C)C(N)=O)NC1=O,> 100,22,
C=C1/C=C/COC[C@@H](C(=O)N[C@@H](CC(C)C)C(N)=O)NC(=O)[C@H]([C@@H](C)CC)NC(=O)[C@@H]2CCCN2C(=O)CNC(=O)C1,98,46,
CC[C@H](C)[C@@H]1NC(=O)[C@@H]2CCCN2C(=O)[C@H](Cc2ccccc2)NC(=O)CCCc2cn(nn2)C[C@@H](C(=O)N[C@@H](CC(C)C)C(N)=O)NC1=O,> 100,8,> 30
CC[C@H](C)[C@@H]1NC(=O)[C@@H]2CCCN2C(=O)[C@H](Cc2ccc(O)cc2)NC(=O)CCc2cnnn2CC[C@@H](C(=O)N[C@@H](CC(C)C)C(N)=O)NC1=O,> 100,44,
CC[C@H](C)[C@@H]1NC(=O)[C@@H]2CCCN2C(=O)[C@H](C)NC(=O)CCC/C=C/COC[C@@H](C(=O)N[C@@H](CC(C)C)C(N)=O)NC1=O,> 100,5,
CC(C)C[C@H](NC(=O)[C@@H]1COCc2cnnn2CCC(=O)NCC(=O)N2CCC[C@H]2C(=O)N[C@@H](Cc2cccc3ccccc23)C(=O)N1)C(N)=O,7,,3.6
CC[C@H](C)[C@@H]1NC(=O)[C@@H]2CCCN2C(=O)CNC(=O)CCCc2cnnn2C[C@@H](C(=O)N[C@@H](CC(C)C)C(N)=O)NC1=O,> 100,16,
CC[C@H](C)[C@@H]1NC(=O)[C@@H]2CCCN2C(=O)[C@H](Cc2ccc(O)cc2)NC(=O)CCCCn2nncc2COC[C@@H](C(=O)N[C@@H](CC(C)C)C(N)=O)NC1=O,> 100,28,> 30
CC(C)C[C@H](NC(=O)[C@@H]1COCc2cnnn2CC(=O)NCC(=O)N2CCC[C@H]2C(=O)N[C@@H](Cc2cccc3ccccc23)C(=O)N1)C(N)=O,9.6,,3.2
CC[C@H](C)[C@@H]1NC(=O)[C@@H]2CCCN2C(=O)[C@H](Cc2ccc(O)cc2)NC(=O)CCCCn2nncc2CSC[C@@H](C(=O)N[C@@H](CC(C)C)C(N)=O)NC1=O,> 100,20,> 30
CC[C@H](C)[C@@H]1NC(=O)[C@@H]2CCCN2C(=O)CNC(=O)CCCCn2nncc2COC[C@@H](C(=O)N[C@@H](CC(C)C)C(N)=O)NC1=O,100,48,
CC(C)C[C@H](NC(=O)[C@@H]1COCc2cnnn2CCCCC(=O)NCC(=O)N2CCOC[C@H]2C(=O)N[C@@H](Cc2cccc3ccccc23)C(=O)N1)C(N)=O,6.5,,5
CC(C)C[C@H](NC(=O)[C@@H]1COCc2cnnn2CCCCC(=O)NCC(=O)N2CCC[C@H]2C(=O)N[C@@H](Cc2cccc3ccccc23)C(=O)N1)C(N)=O,7.1,,2.4
CC(C)C[C@H](NC(=O)[C@@H]1COCc2cnnn2CCCC(=O)NCC(=O)N2CCC[C@H]2C(=O)N[C@@H](Cc2cccc3ccccc23)C(=O)N1)C(N)=O,10,,4.1
CC[C@H](C)[C@@H]1NC(=O)[C@@H]2CCCN2C(=O)[C@H](Cc2ccccc2)NC(=O)CCCCn2nncc2COC[C@@H](C(=O)N[C@@H](CC(C)C)C(N)=O)NC1=O,> 100,38,
CC[C@H](C)[C@@H]1NC(=O)[C@@H]2CCCN2C(=O)[C@H](C)NC(=O)CCCC#CC#CCOC[C@@H](C(=O)N[C@@H](CC(C)C)C(N)=O)NC1=O,> 100,0,
CC[C@H](C)[C@@H]1NC(=O)[C@@H]2CCCN2C(=O)[C@H](Cc2ccccc2)NC(=O)CCCc2cn(nn2)CC[C@@H](C(=O)N[C@@H](CC(C)C)C(N)=O)NC1=O,> 100,9,> 30
CC[C@H](C)[C@@H]1NC(=O)[C@@H]2CCCN2C(=O)[C@H](Cc2ccc(O)cc2)NC(=O)CCCCn2cc(nn2)CSC[C@@H](C(=O)N[C@@H](CC(C)C)C(N)=O)NC1=O,> 100,0,> 30
C=C1/C=C/COC[C@@H](C(=O)N[C@@H](CC(C)C)C(N)=O)NC(=O)[C@H]([C@@H](C)CC)NC(=O)[C@@H]2CCCN2C(=O)CNC(=O)CC1,> 100,21,
CC[C@H](C)[C@@H]1NC(=O)[C@@H]2CCCN2C(=O)[C@H](Cc2ccc(O)cc2)NC(=O)CCCCn2cc(nn2)COC[C@@H](C(=O)N[C@@H](CC(C)C)C(N)=O)NC1=O,> 100,22,> 30
CC[C@H](C)[C@@H]1NC(=O)[C@@H]2CCCN2C(=O)[C@H](C)NC(=O)c2ccccc2/C=C/COC[C@@H](C(=O)N[C@@H](CC(C)C)C(N)=O)NC1=O,> 100,25,
CC[C@H](C)[C@@H]1NC(=O)[C@@H]2CCCN2C(=O)CNC(=O)CCCn2nncc2COC[C@@H](C(=O)N[C@@H](CC(C)C)C(N)=O)NC1=O,> 100,39,
CC(C)C[C@H](NC(=O)[C@H]1Cc2cnnn2CCCCC(=O)NCC(=O)N2CCC[C@H]2C(=O)N[C@@H](Cc2cccc3ccccc23)C(=O)N1)C(N)=O,65,,
